Literature values in US10806768B2, “Composition for promoting metallothionein production” (priority 2016, dated 2020).

CC(=O)N[C@@H](CS)C(=O)O [NAC, N-Acetyl-Cysteine]
oxidative glutathione disulfide (GSSG) level, NAC group (only at a trend level of significance, p=0.09): increased
CGI-I, NAC versus placebo groups (p>0.69): no statistically significant difference
glutathione (GSH) level in blood, NAC group (versus placebo, p<0.05): significantly higher
DNA strand break and oxidative damage, NAC versus placebo groups (week 12): no significant difference
GSH/GSSG ratio, NAC versus placebo groups (week 12): no significant difference
blood homocysteine levels, NAC versus placebo groups (week 12): no significant difference
